{
  "source": "patent US11413280B2",
  "about": "(The Board of Trustees of the Leland Stanford Junior …, priority 2017, dated 2022)",
  "system": "FHIT",
  "test": "Relative FHIT mRNA expression in PAECs (qPCR)",
  "type": "cell-based, human",
  "conditions": "PAEC, 24 hours, low doses (5-15 uM), FIG. 14",
  "experimental": "Human PAEC (Promocell) or human PASMC (Promocell) were grown as monolayers in gelatin-coated dishes in a commercial EC (Promocell) or SMC (Promocell) media, respectively. Cells were passaged at 1:3 ratios and used for experiments from passages 3-8. Transformed lymphocytes (i.e., lymphoblasts) were cultured in RPMI 1640 with 10-15% FBS.\nFHIT expression was modulated by RNAi in PA endothelial cells (PAEC). A pool of 4 siRNAs for BMPR2, FHIT, LCK or a non-targeting control pool (Dharmacon) were transfected into PAECs using the RNAi Max kit (Invitrogen) for 48 hours. mRNA knockdown efficiency was determined by qPCR.\nFor mRNA, total RNA was extracted from whole lung tissue using the RNAeasy Plus Kit (Qiagen) and reverse transcribed into cDNA using random primers with the Taqman cDNA reverse transcription Kit (Applied Biosciences) according to the manufacturer's instructions. For miR, total miR was isolated from whole lung tissue using the Taqman miRNA ABC purification Kit (Applied Biosciences) and was reverse transcribed using specific primers and the Taqman microRNA reverse transcription kit (Applied Biosciences). mRNA and miR expression levels were quantified using Taqman primer/probe sets for the target and normalized to a housekeeping control (mRNA: GAPDH; miR: RNU48). […]",
  "data": [
    {"smiles": "Cn1cc(C2=C(c3cn(C4CCN(Cc5ccccn5)CC4)c4ccccc34)C(=O)NC2=O)c2ccccc21", "note": "[Enzastaurin, 3-(1-methyl-1H-indol-3-yl)-4-[1-[1-(pyridin-2-ylmethyl)piperidin-4-yl]-1H-indol-3-yl]-1H-pyrrole-2,5-dione]", "values": [
      {"measurement": "FHIT expression at low doses in vitro", "value": "increased"}
    ]}
  ]
}
